Laboratory results published in PMC12432435, “Not only an inhibitor: Trehalose enhances the catalytic action exerted on oxaloacetate by rabbit lactate dehydrogenase” (Protein Science : A Publication of the Protein Society, 2025).

Experiments:
[1] = target: T1, rabbit muscle lactate dehydrogenase (rbLDH, LDH-A) (Oryctolagus cuniculus, UniProt P13491); assay: stopped-flow tryptophan fluorescence quenching of the rbLDH•β-NADH complex; assay type: binding
T1 construct: gene LDHA; tetrameric enzyme from rabbit skeletal muscle

[2] = target: T1, rabbit muscle lactate dehydrogenase (rbLDH, LDH-A); assay: stopped-flow tryptophan fluorescence quenching (FRET), association and dissociation kinetics; assay type: binding; details: read-out: stopped-flow tryptophan fluorescence quenching (FRET), association and dissociat

Row | Control / k obs [1] [s⁻¹] | kon [2] [M⁻¹ s⁻¹] | Compound
1 | 642 ± 19 | – | NC(=O)C(=O)O [oxamate]
2 | – | 1.17e+08 | NC(=O)C1=CN([C@@H]2O[C@H](COP(=O)(O)OP(=O)(O)OC[C@H]3O[C@@H](n4cnc5c(N)ncnc54)[C@H](O)[C@@H]3O)[C@@H](O)[C@H]2O)C=CC1 [β-NADH]
